Measurements: ChEMBL document CHEMBL5724914, “Linking interpersonal differences in gut microbiota composition and drug biotransformation activity” (2024)

Experiments:
[1] = (§1) The drug is tested on Z-027 corresponding to metagenome with ENA study accession number: PRJEB37062 and ENA sample accession number: ERS12561826 for biotransformation under anaerobic condition. The drug concentrations were measured over 9 timepoints collected between 0 and 24 hours of incubation by liquid-chromatography-coupled mass spectrometry (LC–MS); details: 2 µM
[2] = (§2) The drug is tested on Z-024 corresponding to pig gut metagenome with ENA study accession number: PRJEB37062 and ENA sample accession number: ERS12561823 for biotransformation under anaerobic condition. The drug concentrations were measured over 9 timepoints collected between 0 and 24 hours of incubation by liquid-chromatography-coupled mass spectrometry (LC–MS); details: 2 µM
[3] = as §2, with “Z-019” for “Z-024”, “rat” for “pig”, “ERS12561818” for “ERS12561823”; details: 2 µM
[4] = as §2, with “Z-018” for “Z-024”, “ERS12561817” for “ERS12561823”; details: 2 µM
[5] = as §2, with “Z-017” for “Z-024”, “mouse” for “pig”, “ERS12561816” for “ERS12561823”; details: 2 µM
[6] = as §1, with “Z-012” for “Z-027”, “ERS12561812” for “ERS12561826”; details: 2 µM
[7] = as §1, with “Z-010” for “Z-027”, “ERS12561810” for “ERS12561826”; details: 2 µM
[8] = as §2, with “Z-009” for “Z-024”, “ERS12561809” for “ERS12561823”; details: 2 µM
[9] = as §2, with “Z-003” for “Z-024”, “ERS12561803” for “ERS12561823”; details: 2 µM
[10] = as §2, with “WLS-370” for “Z-024”, “human” for “pig”, “ERS12561793” for “ERS12561823”; details: 2 µM
[11] = as §2, with “WLS-310” for “Z-024”, “human” for “pig”, “ERS12561785” for “ERS12561823”; details: 2 µM
[12] = as §2, with “WLS-240” for “Z-024”, “human” for “pig”, “ERS12561773” for “ERS12561823”; details: 2 µM
[13] = as §2, with “WLS-052” for “Z-024”, “human” for “pig”, “ERS12561747” for “ERS12561823”; details: 2 µM
[14] = as §2, with “WLS-010” for “Z-024”, “human” for “pig”, “ERS12561743” for “ERS12561823”; details: 2 µM
[15] = human gut metagenome, 24 h, 2 µM
[16] = human gut metagenome, 24 h, 2 µM; remark: listed apart in the source
[17] = human gut metagenome, 24 h, 2 µM; remark: listed apart in the source
[18] = human gut metagenome, 24 h, 2 µM; remark: listed apart in the source
[19] = human gut metagenome, 24 h, 2 µM; remark: listed apart in the source
[20] = human gut metagenome, 24 h, 2 µM; remark: listed apart in the source
Further: call rule not given here.

SMILES	Bacterial Biotransformation [1]	Bacterial Biotransformation [2]	Bacterial Biotransformation [3]	Bacterial Biotransformation [4]	Bacterial Biotransformation [5]	Bacterial Biotransformation [6]	Bacterial Biotransformation [7]	Bacterial Biotransformation [8]	Bacterial Biotransformation [9]	Bacterial Biotransformation [10]	Bacterial Biotransformation [11]	Bacterial Biotransformation [12]	Bacterial Biotransformation [13]	Bacterial Biotransformation [14]	Bacterial Biotransformation [15]	Bacterial Biotransformation [16]	Bacterial Biotransformation [17]	Bacterial Biotransformation [18]	Bacterial Biotransformation [19]	Bacterial Biotransformation [20]
Nc1c2c(nc3ccccc13)CCCC2 [TACRINE]	Compound NOT metabolized	Compound NOT metabolized	Compound NOT metabolized	Compound NOT metabolized	Compound NOT metabolized	Compound NOT metabolized	Compound NOT metabolized	Compound NOT metabolized	Compound NOT metabolized	Compound NOT metabolized	Compound metabolized	Compound metabolized	Compound NOT metabolized	Compound NOT metabolized	Compound NOT metabolized	Compound NOT metabolized	Compound metabolized	Compound NOT metabolized	Compound metabolized	Compound metabolized
Cc1ccc(S(=O)(=O)NC(=O)NN2CCCCCC2)cc1 [TOLAZAMIDE]	Compound NOT metabolized	Compound metabolized	Compound NOT metabolized	Compound metabolized	Compound NOT metabolized	Compound metabolized	Compound metabolized	Compound metabolized	Compound metabolized	Compound metabolized	Compound metabolized	Compound metabolized	Compound metabolized	Compound metabolized	Compound metabolized	Compound metabolized	Compound metabolized	Compound metabolized	Compound metabolized	Compound metabolized
CCOC(=O)[C@H](CCc1ccccc1)N[C@@H](C)C(=O)N1[C@H](C(=O)O)C[C@H]2CCCC[C@@H]21 [TRANDOLAPRIL]	Compound NOT metabolized	Compound metabolized	Compound NOT metabolized	Compound metabolized	Compound NOT metabolized	Compound NOT metabolized	Compound metabolized	Compound metabolized	Compound metabolized	Compound NOT metabolized	Compound metabolized	Compound metabolized	Compound metabolized	Compound metabolized	Compound metabolized	Compound metabolized	Compound metabolized	Compound metabolized	Compound metabolized	Compound metabolized
CC(CN(C)C)CN1c2ccccc2CCc2ccccc21.O=C(O)/C=C\C(=O)O (stereo not given) [TRIMIPRAMINE MALEATE]	Compound NOT metabolized	Compound metabolized	Compound NOT metabolized	Compound NOT metabolized	Compound NOT metabolized	Compound metabolized	Compound NOT metabolized	Compound NOT metabolized	Compound metabolized	Compound NOT metabolized	Compound metabolized	Compound metabolized	Compound NOT metabolized	Compound metabolized	Compound metabolized	Compound NOT metabolized	Compound NOT metabolized	Compound metabolized	Compound metabolized	Compound NOT metabolized
CC(=O)CC(c1ccccc1)c1c(O)c2ccccc2oc1=O (stereo not given) [WARFARIN]	Compound NOT metabolized	Compound metabolized	Compound NOT metabolized	Compound metabolized	Compound NOT metabolized	Compound metabolized	Compound metabolized	Compound metabolized	Compound metabolized	Compound metabolized	Compound metabolized	Compound metabolized	Compound metabolized	Compound metabolized	Compound metabolized	Compound metabolized	Compound metabolized	Compound metabolized	Compound metabolized	Compound metabolized
Cc1ccc(-c2nc3ccc(C)cn3c2CC(=O)N(C)C)cc1 [ZOLPIDEM]	Compound NOT metabolized	Compound NOT metabolized	Compound NOT metabolized	Compound NOT metabolized	Compound NOT metabolized	Compound NOT metabolized	Compound metabolized	Compound metabolized	Compound metabolized	Compound NOT metabolized	Compound metabolized	Compound metabolized	Compound NOT metabolized	Compound NOT metabolized	Compound NOT metabolized	Compound NOT metabolized	Compound NOT metabolized	Compound metabolized	Compound metabolized	Compound metabolized
